# Patent US20220273637A1, “NOVEL PFAR-INHIBITING COMPOUNDS” (UNIVERSITE DE BRETAGNE OCCIDENTALE (UBO), priority 2019, published 2022)
# Test system: PFAR (protein folding activity of ribosome)
# Assay: Inhibition of PFAR in yeast cells (LuxAB luciferase refolding after heat shock)
# Type: cell-based
# Conditions: not given
row,SMILES,inhibition of PFAR
1,c1ccc(CN(CC2=NCCN2)c2ccccc2)cc1 [antazoline],do not inhibit PFAR
2,CN1C(=O)CN=C(c2ccccc2)c2cc(Cl)ccc21 [diazepam],do not inhibit PFAR

# Test system: PABPN1 aggregates
# Assay: not given
# Type: cell-based, murine
# Conditions: not given
SMILES,nuclei having aggregates of the PABPN1 protein,activity compared with guanabenz (positive control)
CN(C)C(=O)C(CCN1CCC(O)(c2ccc(Cl)cc2)CC1)(c1ccccc1)c1ccccc1 [loperamide],reduce the amount of muscle cell nuclei containing PABPN1 aggregates,–
CN(C)CCCN1c2ccccc2Sc2ccc(C(F)(F)F)cc21 [triflupromazine],negative,–
CC(C)(C)c1ccc(C(=O)CCCN2CCC(OC(c3ccccc3)c3ccccc3)CC2)cc1 [ebastine],reduce the amount of muscle cell nuclei containing PABPN1 aggregates,–
CSc1ccc2c(c1)N(CCC1CCCCN1C)c1ccccc1S2 (centres unmarked) [thioridazine],reduce the amount of muscle cell nuclei containing PABPN1 aggregates,–
CN1C(=O)CN=C(c2ccccc2)c2cc(Cl)ccc21 [diazepam],negative,–
COc1ccc(CCN2CCC(Nc3nc4ccccc4n3Cc3ccc(F)cc3)CC2)cc1 [astemizole],reduce the amount of muscle cell nuclei containing PABPN1 aggregates,–
CN1CCC[C@@H]1CCO[C@](C)(c1ccccc1)c1ccc(Cl)cc1 [clemastine],negative,–
CN1CCCC(CC2c3ccccc3Sc3ccccc32)C1 (centres unmarked) [metixene],reduce the amount of muscle cell nuclei containing PABPN1 aggregates,more active than guanabenz
CN1CCCC(n2nc(Cc3ccc(Cl)cc3)c3ccccc3c2=O)CC1 (centres unmarked) [azelastine],reduce the amount of muscle cell nuclei containing PABPN1 aggregates,–
CNCC[C@H](Oc1cccc2ccccc12)c1cccs1 [duloxetine],reduce the amount of muscle cell nuclei containing PABPN1 aggregates,–

# Test system: Drosophila expressing PABPN1-17ala
# Assay: Drosophila model of OPMD (PABPN1-17ala): abnormal wing position
# Type: in vivo
# Conditions: 2 mM in food, day 3 to day 6, chi-squared test
# Excerpt: The model used is a fruit fly model for OPMD in which the mammalian protein PABPN1 with a repetition of 17 alanines (PABPN1-17a1a) is specifically expressed in the muscles of Drosophila (Chartier et al. 2006; Chartier et al. 2015). These models reproduce the characteristics of the disease, i.e. weakness and progressive muscular degeneration, and also the formation of nuclear PABPN1 aggregates. Thus, the expression of PABPN1-17ala in the indirect wing muscles leads to an abnormal wing posture, resulting from the disorder of the muscle function and degeneration of the muscles (Chartier et al. 2006). […]
# The compounds were administered in the food, prepared as follows: an instant Drosophila medium (Carolina Biological Supply Company) was reconstituted in each tube with a 1% solution of yeast in water, supplemented by the compounds dissolved in DMSO with an increasing concentration, or with DMSO alone. […] The effect of the compounds was quantified by the daily measurement of the number of flies presenting an abnormal wing posture, corresponding to the flies expressing PABPN1-17ala, from day 3 to day 6 of the adult age: groups of five males per condition are placed in an empty tube and the number of males having an abnormal wing position is recorded by direct observation of the flies in the tube, without anesthesia.
row,SMILES,number of flies presenting an abnormal wing posture relative to DMSO
1,CN1CCCC(CC2c3ccccc3Sc3ccccc32)C1 (centres unmarked) [metixene],significant reduction
